System: 252836-082-R-J2-PDC tumor spheroids, viability
Assay: Anticancer human tumor 252836-082-R-J2-PDC patient-derived head and neck squamous cell carcinoma cell line growth inhibition [PI3K]
Details: spheroids with HUVEC and MSC; for IC50: curve of first compound; for viability, T/C: stronger effect = lower value
How it was run: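 Complex 3D spheroids (cancer cells + endothelial HUVEC + mesenchymal stem cells); drug pairs of targeted agent x inavolisib/alpelisib/duvelisib/copanlisib; half-log series from ~Cmax, max 10 microM if Cmax unknown; endpoint viability.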

[1] = second compound 0.00316 µM, first compound 0.0316 µM
[2] = second compound 0.00316 µM, first compound 0.1 µM
[3] = second compound 0.00316 µM, first compound 0.316 µM
[4] = second compound 0.00316 µM, first compound 1 µM
[5] = second compound 0.00316 µM, first compound 3.16 µM
[6] = second compound 0.00316 µM, first compound 10 µM
[7] = second compound 0.01 µM, first compound 0.0316 µM
[8] = second compound 0.01 µM, first compound 0.1 µM
[9] = second compound 0.01 µM, first compound 0.316 µM
[10] = second compound 0.01 µM, first compound 1 µM
[11] = second compound 0.01 µM, first compound 3.16 µM
[12] = second compound 0.01 µM, first compound 10 µM
[13] = second compound 0.0316 µM, first compound 0.0316 µM
[14] = second compound 0.0316 µM, first compound 0.1 µM
[15] = second compound 0.0316 µM, first compound 0.316 µM
[16] = second compound 0.0316 µM, first compound 1 µM
[17] = second compound 0.0316 µM, first compound 3.16 µM
[18] = second compound 0.0316 µM, first compound 10 µM
[19] = second compound 0.1 µM, first compound 0.0316 µM
[20] = second compound 0.1 µM, first compound 0.1 µM
[21] = second compound 0.1 µM, first compound 0.316 µM
[22] = second compound 0.1 µM, first compound 1 µM
[23] = second compound 0.1 µM, first compound 3.16 µM
[24] = second compound 0.1 µM, first compound 10 µM
[25] = second compound 0.316 µM, first compound 0.0316 µM
[26] = second compound 0.316 µM, first compound 0.1 µM
[27] = second compound 0.316 µM, first compound 0.316 µM
[28] = second compound 0.316 µM, first compound 1 µM
[29] = second compound 0.316 µM, first compound 3.16 µM
[30] = second compound 0.316 µM, first compound 10 µM
[31] = second compound 1 µM, first compound 0.0316 µM
[32] = second compound 1 µM, first compound 0.1 µM
[33] = second compound 1 µM, first compound 0.316 µM
[34] = second compound 1 µM, first compound 1 µM
[35] = second compound 1 µM, first compound 3.16 µM
[36] = second compound 1 µM, first compound 10 µM
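Further: spheroids exposed to agents for seven days before readout.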
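Wherever viability, T/C is given: percent of vehicle DMSO control viability so 100% = untreated growth.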

`C=CC(=O)N1CCN(c2nc(=O)n(-c3c(C)ccnc3C(C)C)c3nc(-c4c(O)cccc4F)c(F)cc23)C(C)C1` (stereo unspecified) + CC(Nc1ccc2c(c1)OCCn1cc(N3C(=O)OCC3C(F)F)nc1-2)C(N)=O showed an IC50 (second compound 0.00316 µM) of over 10 µM, an IC50 (second compound 0.01 µM) of over 10 µM and an IC50 (second compound 0.0316 µM) of over 10 µM. The IC50 (second compound 0.1 µM) was over 10 µM, the IC50 (second compound 0.316 µM) was over 10 µM and the IC50 (second compound 1 µM) was under 0.0316 µM. For the same molecule, the viability, T/C [1] was 104%, the viability, T/C [2] was 87.8% and the viability, T/C [3] was 105%. For the same molecule, the viability, T/C [4] was 105%, the viability, T/C [5] was 115% and the viability, T/C [6] was 95.9%. It also gave a viability, T/C [7] of 95.3%, a viability, T/C [8] of 90% and a viability, T/C [9] of 117%. The viability, T/C [10] was 86.8%, the viability, T/C [11] was 104% and the viability, T/C [12] was 89.7%. It also gave a viability, T/C [13] of 79.2%, a viability, T/C [14] of 78.6% and a viability, T/C [15] of 104%. For the same molecule, the viability, T/C [16] was 88.4%, the viability, T/C [17] was 100% and the viability, T/C [18] was 78.3%. For the same molecule, the viability, T/C [19] was 76.1%, the viability, T/C [20] was 62.8% and the viability, T/C [21] was 76.9%. It also gave a viability, T/C [22] of 76.3%, a viability, T/C [23] of 81% and a viability, T/C [24] of 94.6%. It also gave a viability, T/C [25] of 63.5%, a viability, T/C [26] of 60.6% and a viability, T/C [27] of 59.5%. It also gave a viability, T/C [28] of 56.3%, a viability, T/C [29] of 62.2% and a viability, T/C [30] of 67.6%. It also gave a viability, T/C [31] of 45.3%, a viability, T/C [32] of 53% and a viability, T/C [33] of 53.3%. For the same molecule, the viability, T/C [34] was 41.6%, the viability, T/C [35] was 57% and the viability, T/C [36] was 47.7%.

With `CC(Cn1ccc(-c2ccc(C#N)c(Cl)c2)n1)NC(=O)c1cc(C(C)O)[nH]n1` (stereo unspecified) + CC(Nc1ccc2c(c1)OCCn1cc(N3C(=O)OCC3C(F)F)nc1-2)C(N)=O the IC50 (second compound 0.00316 µM) was over 10 µM, the IC50 (second compound 0.01 µM) was over 10 µM and the IC50 (second compound 0.0316 µM) was over 10 µM. For the same molecule, the IC50 (second compound 0.1 µM) was over 10 µM, the IC50 (second compound 0.316 µM) was over 10 µM and the IC50 (second compound 1 µM) was under 0.0316 µM. The viability, T/C [1] was 94.1%, the viability, T/C [2] was 88.5% and the viability, T/C [3] was 97.6%. For the same molecule, the viability, T/C [4] was 94.7%, the viability, T/C [5] was 98.7% and the viability, T/C [6] was 90.6%. The viability, T/C [7] was 102%, the viability, T/C [8] was 87.6% and the viability, T/C [9] was 87.6%. For the same molecule, the viability, T/C [10] was 106%, the viability, T/C [11] was 90.7% and the viability, T/C [12] was 88.8%. For the same molecule, the viability, T/C [13] was 78.4%, the viability, T/C [14] was 82.8% and the viability, T/C [15] was 86.1%. For the same molecule, the viability, T/C [16] was 74.8%, the viability, T/C [17] was 78.3% and the viability, T/C [18] was 87.9%. For the same molecule, the viability, T/C [19] was 62.1%, the viability, T/C [20] was 63.4% and the viability, T/C [21] was 68.1%. For the same molecule, the viability, T/C [22] was 66.1%, the viability, T/C [23] was 66.1% and the viability, T/C [24] was 65.8%. The viability, T/C [25] was 57.7%, the viability, T/C [26] was 57.8% and the viability, T/C [27] was 56.1%. The viability, T/C [28] was 56.8%, the viability, T/C [29] was 56.8% and the viability, T/C [30] was 46.5%. The viability, T/C [31] was 50.2%, the viability, T/C [32] was 47.3% and the viability, T/C [33] was 46.8%. It also gave a viability, T/C [34] of 45.3%, a viability, T/C [35] of 49.9% and a viability, T/C [36] of 47.3%.

With `Cn1nccc1Nc1nccc(-c2ccn(C(CO)c3ccc(Cl)c(F)c3)c(=O)c2)n1` (stereo unspecified) + CC(Nc1ccc2c(c1)OCCn1cc(N3C(=O)OCC3C(F)F)nc1-2)C(N)=O the IC50 (second compound 0.00316 µM) was over 10 µM, the IC50 (second compound 0.01 µM) was over 10 µM and the IC50 (second compound 0.0316 µM) was over 10 µM. The IC50 (second compound 0.1 µM) was 5.84 µM, the IC50 (second compound 0.316 µM) was 1.07 µM and the IC50 (second compound 1 µM) was under 0.0316 µM. For the same molecule, the viability, T/C [1] was 80.8%, the viability, T/C [2] was 90% and the viability, T/C [3] was 92.5%. It also gave a viability, T/C [4] of 85.4%, a viability, T/C [5] of 72.5% and a viability, T/C [6] of 61.9%. It also gave a viability, T/C [7] of 85.5%, a viability, T/C [8] of 78.7% and a viability, T/C [9] of 81%. For the same molecule, the viability, T/C [10] was 89.7%, the viability, T/C [11] was 82.5% and the viability, T/C [12] was 58.1%. For the same molecule, the viability, T/C [13] was 69.4%, the viability, T/C [14] was 74.2% and the viability, T/C [15] was 69.8%. It also gave a viability, T/C [16] of 75.8%, a viability, T/C [17] of 83.8% and a viability, T/C [18] of 44.6%. It also gave a viability, T/C [19] of 70.4%, a viability, T/C [20] of 58% and a viability, T/C [21] of 64.1%. The viability, T/C [22] was 64.6%, the viability, T/C [23] was 60.9% and the viability, T/C [24] was 40.4%. The viability, T/C [25] was 49.5%, the viability, T/C [26] was 50.3% and the viability, T/C [27] was 55.5%. It also gave a viability, T/C [28] of 50.1%, a viability, T/C [29] of 40.7% and a viability, T/C [30] of 28.6%. The viability, T/C [31] was 39.1%, the viability, T/C [32] was 43% and the viability, T/C [33] was 38.7%. It also gave a viability, T/C [34] of 38.6%, a viability, T/C [35] of 31.9% and a viability, T/C [36] of 22.6%.

— PubChem BioAssay AID1963985 (Molecular Pharmacology Branch, DTP, NCI, 2024)
